Measurements as given in patent publication US20050009776A1, “Method of treating atrial fibrillation or atrial flutter” (Aderis Pharmaceuticals, Inc., priority 2003, published 2005).
Marks after values point to notes of the source that are not given here.

Legend:
[1] = test system: AV nodal conduction; assay: Slowing of AV nodal conduction versus heart rate reduction; assay type: in vivo; conditions: guinea pig
Source text: Therefore, DTI-0009 may be capable of terminating episodes of supraventricular arrythymias at doses that have little effect on normal heart rate or blood pressure.

[2] = test system: atrioventricular (AV) node; assay: Example 2: electrophysiologic effects on atrioventricular nodal function, 30-minute i.v. infusion; assay type: in vivo, human
Method: An open-label, sequential group, dose-escalation study was conducted in electrophysiology laboratories at 11 sites in the United States between October 2000 and August 2001. The study protocol was approved by the institutional review board at each site, and patients provided assent and written informed consent prior to enrollment. Male and female patients (18 to 80 years of age), scheduled to undergo an electrophysiological (EP) study for a known or suspected cardiac arrhythmia or a catheter ablation procedure to an area other than the atrioventricular (AV) node, were enrolled in the study. Study procedures were performed after the completion of the scheduled EP procedure and patients were to be in sinus rhythm at study baseline. Exclusion criteria included: greater than first degree AV block, previous ablation of the AV node or AV node slow pathway, presence of an AV Wenckebach cycle length (AV WBCL)≧500 msec, treatment with atropine during the scheduled EP procedure, systolic blood pressure <90 or >180 mmHg, significant hemodynamic instability, ventricular response rate (VRR)<50 bpm, consumption of caffeine-containing food or beverage within the previous 12 hours, treatment with dipyridamole or diltiazem within the respective 5 half lives or theophylline, aminophylline, treatment with a therapeutic adenosine antagonist within the previous 24 hours, heart transplant or myocardial infarction within 30 days, known hypersensitivity to adenosine, known human immunodeficiency virus infection, or clinically significant hematologic, neurologic, hepatic, or renal function impairment.
Each patient received 1 of 6 doses of DTI-0009 (0.25, 1.0, 2.5, 4.0, 10.0, or 25.0 μg/kg) diluted in normal saline or normal saline only (control). Study drug was administered as a 30-minute i.v. infusion at a rate of 1 mL/minute. Patients were enrolled in sequential dose groups, beginning with the lowest active dose group and continuing in increasing dose order; the final group received normal saline. The decision to proceed to the next highest dose group was based on the safety response in the previous dose group.
Electrophysiologic (EP), electrocardiogram (ECG), blood pressure measurements, and blood collection for clinical laboratory measurements were performed at baseline (−10 to 0 minutes), during treatment (between 20 and 30 minutes), and at 10 minutes post-treatment.
EP measurements included ventricular response rate (VRR) during fixed atrial pacing at 250 and 400 msec (VRR 250 and VRR 400), AV WBCL, the interval from atrium to His bundle (AH interval) during sinus rhythm and rapid fixed atrial pacing at 600 msec, AV node effective refractory period (AVNERP), and atrial effective refractory period (AERP). Ventricular response rate during sinus rhythm was derived from the sinus cycle length.
ECG measurements included PR interval, QRS complex duration, and QT interval. Efficacy was based on changes in EP and ECG parameters from baseline to the treatment period and to post treatment. Safety was based on the incidence of adverse events, blood pressure measurements, and clinical laboratory values.
Demographic and baseline information were summarized by dose group. Efficacy variables were summarized overall by dose group at baseline, during treatment, and at post-treatment; mean changes from baseline to treatment period and post-treatment were calculated. Treatment effects (the mean difference between change from baseline for DTI-0009 dose and change from baseline for normal saline) and confidence intervals (95% CI) were estimated from an analysis of covariance (ANCOVA) model with treatment as the main factor and baseline score as a covariate. Regression models were constructed to test for dose responses. Efficacy analyses included all patients who received at least 20 minutes of study drug infusion, had analyzable VRR 250 at baseline and during treatment, and were in sinus rhythm at baseline.

CCNC(=O)[C@H]1O[C@@H](n2cnc3c(NC4CCCC4)ncnc32)[C@H](O)[C@@H]1O [DTI-0009, N^6-cyclopentyl-5′-(N-ethyl)carboxamidoadenosine]
potency at slowing AV nodal conduction versus reducing heart rate ([1]; in vivo): three times more potent at slowing AV nodal conduction than at reducing heart rate | rate dependence of slowing AV nodal conduction ([1]; rapid atrial pacing vs normal sinus rhythm): more potent at slowing AV nodal conduction during periods of rapid atrial pacing than during normal sinus rhythm | AERP Treatment Effect ([2]; 0.25 μg/kg, during treatment): -9.6 ms | AH interval 600 msec Pacing Treatment Effect ([2]; 0.25 μg/kg, during treatment): 4.85 ms | AH interval Sinus Rhythm Treatment Effect ([2]; 0.25 μg/kg, during treatment): -2.8 ms | AVNERP Treatment Effect ([2]; 0.25 μg/kg, during treatment): -7.03 ms | AERP Treatment Effect ([2]; 1.0 μg/kg, during treatment): -18.3 ms | AH interval 600 msec Pacing Treatment Effect ([2]; 1.0 μg/kg, during treatment): 2.6 ms | AH interval Sinus Rhythm Treatment Effect ([2]; 1.0 μg/kg, during treatment): -0.1 ms | AVNERP Treatment Effect ([2]; 1.0 μg/kg, during treatment): -1.0 ms | PR interval treatment effect ([2]; 1.0 μg/kg, during treatment, p=0.008): -42.2 ms | PR interval treatment effect ([2]; 1.0 μg/kg, post-treatment, p=0.023): -34.5 ms | AERP Treatment Effect ([2]; 2.5 μg/kg, during treatment): -7.3 ms | AH interval 600 msec Pacing Treatment Effect ([2]; 2.5 μg/kg, during treatment): 18.0 ms | AH interval Sinus Rhythm Treatment Effect ([2]; 2.5 μg/kg, during treatment): 7.1 ms | AVNERP Treatment Effect ([2]; 2.5 μg/kg, during treatment): 16.0 ms | AERP Treatment Effect ([2]; 4.0 μg/kg, during treatment): 0.6 ms | AH interval 600 msec Pacing Treatment Effect ([2]; 4.0 μg/kg, during treatment): 18.7 ms | AH interval Sinus Rhythm Treatment Effect ([2]; 4.0 μg/kg, during treatment): 7.2 ms | AVNERP Treatment Effect ([2]; 4.0 μg/kg, during treatment): 82.4 ms | VRR 250 treatment effect ([2]; 4.0 μg/kg, during treatment, CI −51.0, −8.4, p=0.008): −29.7 bpm | AERP Treatment Effect ([2]; 10.0 μg/kg, during treatment): −22.0* msec | AH interval 600 msec Pacing Treatment Effect ([2]; 10.0 μg/kg, during treatment): 57.9*** msec | AH interval Sinus Rhythm Treatment Effect ([2]; 10.0 μg/kg, during treatment): 21.1** msec | AVNERP Treatment Effect ([2]; 10.0 μg/kg, during treatment): 231.5*** msec | VRR 250 treatment effect ([2]; 10.0 μg/kg, during treatment, CI −68.3, −26.4, p=0.001): −47.4 bpm | PR interval treatment effect ([2]; 10.0 μg/kg, post-treatment, p=0.007): 42.9 ms | AERP Treatment Effect ([2]; 25.0 μg/kg, during treatment): 4.0 ms | AH interval 600 msec Pacing Treatment Effect ([2]; 25.0 μg/kg, during treatment): 64.8** msec | AH interval Sinus Rhythm Treatment Effect ([2]; 25.0 μg/kg, during treatment): 14.2 ms | AVNERP Treatment Effect ([2]; 25.0 μg/kg, during treatment): 198.3* msec | VRR 250 treatment effect ([2]; 25.0 μg/kg, during treatment, CI −85.7, −18.5, p=0.004): −52.1 bpm | VRR 250 treatment effect at lower doses ([2]; 0.25, 1.0, and 2.5 μg/kg): no statistically significant treatment effect | QRS duration or QT interval ([2]; during the study): no statistically significant changes | AV WBCL treatment effect ([2]; during treatment, 10.0 and 25.0 μg/kg (p=0.001, p=0.035)): statistically significant treatment effects (increases from baseline) | AV WBCL treatment effect ([2]; post-treatment, 4.0, 10.0 and 25.0 μg/kg (p=0.013, p=0.001, p=0.001)): statistically significant treatment effects (increases from baseline)
